As a reminder, the IC50 is the concentration that inhibits the measured activity by half.

The target in test [1] is JAK2 (Homo sapiens (Human), UniProt O60674). The experiment in a line: Jak Biochemical HTRF Assay, JAK2. Particulars: HTRF biochemical assay, GST-tagged catalytic domain; top concentration tested […]. The source says: (§1) Jak Biochemical HTRF Assay Protocol
(§2) Subsequent reagent additions employed an Agilent Bravo.
(Time-resolved FRET reads energy transfer from a long-lived donor to a nearby acceptor.)

Test [2] addresses JAK1 (Homo sapiens (Human), UniProt P23458). As to the kind of experiment: Jak Biochemical HTRF Assay, JAK1. The settings on record: HTRF biochemical assay, GST-tagged catalytic domain; top concentration tested […]; read-out: JAK1 IC50.
Source text: as §1, §2

SMILES strings stand for the structures.

Sequence of JAK2 (O60674 849-1124): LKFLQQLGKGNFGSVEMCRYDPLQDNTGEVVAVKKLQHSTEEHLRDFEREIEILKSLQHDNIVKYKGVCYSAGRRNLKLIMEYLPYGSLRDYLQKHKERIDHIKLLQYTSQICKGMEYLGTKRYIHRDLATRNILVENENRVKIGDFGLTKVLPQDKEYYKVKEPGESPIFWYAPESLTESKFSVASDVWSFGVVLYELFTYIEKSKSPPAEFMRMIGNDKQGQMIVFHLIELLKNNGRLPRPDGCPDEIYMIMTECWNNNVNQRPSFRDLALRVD
Sequence of JAK1 (P23458 875-1153): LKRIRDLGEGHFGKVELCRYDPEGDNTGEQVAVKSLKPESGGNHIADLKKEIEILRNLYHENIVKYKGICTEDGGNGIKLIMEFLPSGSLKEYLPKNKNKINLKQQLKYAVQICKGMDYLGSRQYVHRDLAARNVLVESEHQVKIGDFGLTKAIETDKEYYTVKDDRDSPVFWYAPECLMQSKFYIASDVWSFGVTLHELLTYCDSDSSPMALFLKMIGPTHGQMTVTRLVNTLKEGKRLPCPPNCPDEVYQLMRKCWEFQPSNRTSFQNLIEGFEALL

In the case of `Cc1ccc(CN2CCC(CC#N)(n3cc(C(N)=O)c(Nc4ccccc4)n3)CC2)cc1` [Example 21-7, 1-[4-(cyanomethyl)-1-(4-methylbenzyl)piperidin-4-yl]-3-(phenylamino)-1H-pyrazole-4-carboxamide], the figures for the IC50 in test [1] and in test [2] were 135 nM and 11 nM, respectively.

Consider `N#CCC1(n2cc(C(N)=O)c(Nc3ccccc3)n2)CCN(Cc2cccc3ccccc23)CC1` [Example 21-8, 1-[4-(cyanomethyl)-1-(naphthalene-1-ylmethyl)piperidin-4-yl]-3-(phenylamino)-1H-pyrazole-4-carboxamide], for which the figures for the IC50 in test [1] and in test [2] were 1300 nM and 89 nM, respectively.

Consider `N#CCC1(n2cc(C(N)=O)c(Nc3ccccc3)n2)CCN(CC2CCCCC2)CC1` [Example 21-9, 1-[4-(cyanomethyl)-1-(cyclohexylmethyl)piperidin-4-yl]-3-(phenylamino)-1H-pyrazole-4-carboxamide], for which the values for the IC50 in test [1] and in test [2] were 319 nM and 15 nM, respectively.

For the compound `N#CCC1(n2cc(C(N)=O)c(Nc3ccccc3)n2)CCN(Cc2ccc3c(c2)OCO3)CC1` [Example 21-10, 1-[1-(1,3-benzodioxol-5-ylmethyl)-4-(cyanomethyl)piperidin-4-yl]-3-(phenylamino)-1H-pyrazole-4-carboxamide], the IC50 came to 78 nM in test [1] and 8 nM in test [2].

Regarding `N#CCC1(n2cc(C(N)=O)c(Nc3ccccc3)n2)CCN(Cc2cccc(O)c2)CC1` [Example 21-11, 1-[4-(cyanomethyl)-1-(3-hydroxybenzyl)piperidin-4-yl]-3-(phenylamino)-1H-pyrazole-4-carboxamide], the IC50 in test [1] was 6 nM; in test [2], 0.3 nM.

As to `CC(=O)Nc1ccc(CN2CCC(CC#N)(n3cc(C(N)=O)c(Nc4ccccc4)n3)CC2)cc1` [Example 21-12, 1-{1-[4-(acetylamino)benzyl]-4-(cyanomethyl)piperidin-4-yl}-3-(phenylamino)-1H-pyrazole-4-carboxamide], the IC50 in test [1] is 128 nM; in test [2] it was 7 nM.

As for `COc1ccc2cc(CN3CCC(CC#N)(n4cc(C(N)=O)c(Nc5ccccc5)n4)CC3)ccc2c1` [Example 21-13, 1-{4-(cyanomethyl)-1-[(6-methoxynaphthalen-2-yl)methyl]piperidin-4-yl}-3-(phenylamino)-1H-pyrazole-4-carboxamide], the values for the concentration for half-maximal inhibition (IC50) in test [1] and in test [2] were 297 nM and 24 nM, respectively.

With `N#CCC1(n2cc(C(N)=O)c(Nc3ccccc3)n2)CCN(Cc2c(Cl)cccc2Cl)CC1` [Example 21-14, 1-[4-(cyanomethyl)-1-(2,6-dichlorobenzyl)piperidin-4-yl]-3-(phenylamino)-1H-pyrazole-4-carboxamide], the IC50 came to 224 nM in test [1] and 18 nM in test [2].

For the compound `CSCCCN1CCC(CC#N)(n2cc(C(N)=O)c(Nc3ccccc3)n2)CC1` [Example 21-15, 1-{4-(cyanomethyl)-1-[3-(methylsulfanyl)propyl]piperidin-4-yl}-3-(phenylamino)-1H-pyrazole-4-carboxamide], the IC50 was 242 nM in test [1] and 12 nM in test [2].

For `CCOc1ccccc1CN1CCC(CC#N)(n2cc(C(N)=O)c(Nc3ccccc3)n2)CC1` [Example 21-16, 1-[4-(cyanomethyl)-1-(2-ethoxybenzyl)piperidin-4-yl]-3-(phenylamino)-1H-pyrazole-4-carboxamide], the figures for the IC50 in test [1] and in test [2] were 842 nM and 69 nM, respectively.

For the compound `N#CCC1(n2cc(C(N)=O)c(Nc3ccccc3)n2)CCN(C/C=C/c2ccccc2)CC1` [Example 21-17, 1-{4-(cyanomethyl)-1-[(2E)-3-phenylprop-2-en-1-yl]piperidin-4-yl}-3-(phenylamino)-1H-pyrazole-4-carboxamide], the IC50 was found to be 208 nM in test [1] and 19 nM in test [2].

For the compound `N#CCC1(n2cc(C(N)=O)c(Nc3ccccc3)n2)CCN(Cc2cccc(F)c2)CC1` [Example 21-18, 1-[4-(cyanomethyl)-1-(3-fluorobenzyl)piperidin-4-yl]-3-(phenylamino)-1H-pyrazole-4-carboxamide], the IC50 stood at 73 nM in test [1] and 2 nM in test [2].

Consider `N#CCC1(n2cc(C(N)=O)c(Nc3ccccc3)n2)CCN(Cc2ccc(C(F)(F)F)cc2)CC1` [Example 21-19, 1-{4-(cyanomethyl)-1-[4-(trifluoromethyl)benzyl]piperidin-4-yl}-3-(phenylamino)-1H-pyrazole-4-carboxamide], for which the IC50 in test [1] amounted to 460 nM; in test [2], 35 nM.

As to `N#CCC1(n2cc(C(N)=O)c(Nc3ccccc3)n2)CCN(Cc2ccc(Cl)cc2F)CC1` [Example 21-21, 1-[1-(4-chloro-2-fluorobenzyl)-4-(cyanomethyl)piperidin-4-yl]-3-(phenylamino)-1H-pyrazole-4-carboxamide], the figures for the IC50 in test [1] and in test [2] were 44 nM and 3 nM, respectively.

In the case of `CCCc1ccc(CN2CCC(CC#N)(n3cc(C(N)=O)c(Nc4ccccc4)n3)CC2)cc1` [Example 21-22, 1-[4-(cyanomethyl)-1-(4-propylbenzyl)piperidin-4-yl]-3-(phenylamino)-1H-pyrazole-4-carboxamide], the figures for the IC50 in test [1] and in test [2] were 888 nM and 72 nM, respectively.

For the compound `N#CCC1(n2cc(C(N)=O)c(Nc3ccccc3)n2)CCN(Cc2c(F)cccc2F)CC1` [Example 21-23, 1-[4-(cyanomethyl)-1-(2,6-difluorobenzyl)piperidin-4-yl]-3-(phenylamino)-1H-pyrazole-4-carboxamide], the IC50 came to 13 nM in test [1] and 0.8 nM in test [2].

Consider `CC(C)c1ccc(CN2CCC(CC#N)(n3cc(C(N)=O)c(Nc4ccccc4)n3)CC2)cc1` [Example 21-24, 1-{4-(cyanomethyl)-1-[4-(1-methylethyl)benzyl]piperidin-4-yl}-3-(phenylamino)-1H-pyrazole-4-carboxamide], for which the values for the IC50 in test [1] and in test [2] were 1050 nM and 120 nM, respectively.

On to `N#CCC1(n2cc(C(N)=O)c(Nc3ccccc3)n2)CCN(CC#Cc2ccccc2)CC1` [Example 21-25, 1-[4-(cyanomethyl)-1-(3-phenylprop-2-yn-1-yl)piperidin-4-yl]-3-(phenylamino)-1H-pyrazole-4-carboxamide], for which the IC50 in test [1] was 747 nM; in test [2], 83 nM.

Take `N#CCC1(n2cc(C(N)=O)c(Nc3ccccc3)n2)CCN(Cc2c(F)ccc(F)c2F)CC1` [Example 21-26, 1-[4-(cyanomethyl)-1-(2,3,6-trifluorobenzyl)piperidin-4-yl]-3-(phenylamino)-1H-pyrazole-4-carboxamide]: the figures for the IC50 in test [1] and in test [2] were 11 nM and 0.7 nM, respectively.

`CC(C)Oc1ccc(CN2CCC(CC#N)(n3cc(C(N)=O)c(Nc4ccccc4)n3)CC2)cc1` [Example 21-27, 1-{4-(cyanomethyl)-1-[4-(1-methylethoxy)benzyl]piperidin-4-yl}-3-(phenylamino)-1H-pyrazole-4-carboxamide]: the IC50 in test [1] is 809 nM; in test [2], 36 nM.

`Cc1ccc(CN2CCC(CC#N)(n3cc(C(N)=O)c(Nc4ccccc4)n3)CC2)cc1C` [Example 21-28, 1-[4-(cyanomethyl)-1-(3,4-dimethylbenzyl)piperidin-4-yl]-3-(phenylamino)-1H-pyrazole-4-carboxamide]: the figures for the IC50 in test [1] and in test [2] were 453 nM and 39 nM, respectively.

In the case of `COC(=O)c1ccccc1CN1CCC(CC#N)(n2cc(C(N)=O)c(Nc3ccccc3)n2)CC1` [Example 21-29, methyl 2-({4-[4-carbamoyl-3-(phenylamino)-1H-pyrazol-1-yl]-4-(cyanomethyl)piperidin-1-yl}methyl)benzoate], the IC50 in test [1] was determined as 400 nM; in test [2], 21 nM.

`CCn1ccnc1CN1CCC(CC#N)(n2cc(C(N)=O)c(Nc3ccnc(F)c3)n2)CC1` [Example 22-1, 1-(4-(Cyanomethyl)-1-((1-ethyl-1H-imidazol-2-yl)methyl)piperidin-4-yl)-3-((2-fluoropyridin-4-yl)amino)-1H-pyrazole-4-carboxamide]: the IC50 in test [1] came out at 447 nM; in test [2], 30 nM.

Turning to `N#CCC1(n2cc(C(N)=O)c(Nc3ccnc(F)c3)n2)CCN(Cc2cccnc2)CC1` [Example 22-2, 1-[4-(cyanomethyl)-1-(pyridin-3-ylmethyl)piperidin-4-yl]-3-[(2-fluoropyridin-4-yl)amino]-1H-pyrazole-4-carboxamide], the concentration for half-maximal inhibition (IC50) in test [1] was 5 nM; in test [2], 0.2 nM.

With `N#CCC1(n2cc(C(N)=O)c(Nc3ccnc(F)c3)n2)CCN(CC2CCCCC2)CC1` [Example 22-3, 1-[4-(cyanomethyl)-1-(cyclohexylmethyl)piperidin-4-yl]-3-[(2-fluoropyridin-4-yl)amino]-1H-pyrazole-4-carboxamide], the IC50 in test [1] came to 57 nM; in test [2], 1 nM.

Regarding `Cc1c[nH]c(CN2CCC(CC#N)(n3cc(C(N)=O)c(Nc4ccnc(F)c4)n3)CC2)n1` [Example 22-4, 1-{4-(cyanomethyl)-1-[(4-methyl-1H-imidazol-2-yl)methyl]piperidin-4-yl}-3-[(2-fluoropyridin-4-yl)amino]-1H-pyrazole-4-carboxamide], the concentration for half-maximal inhibition (IC50) was determined as 1180 nM in test [1] and 74 nM in test [2].

Turning to `N#CCC1(n2cc(C(N)=O)c(Nc3ccnc(F)c3)n2)CCN(Cc2cn[nH]c2)CC1` [Example 22-5, 1-[4-(cyanomethyl)-1-(1H-pyrazol-4-ylmethyl)piperidin-4-yl]-3-[(2-fluoropyridin-4-yl)amino]-1H-pyrazole-4-carboxamide], the values for the IC50 in test [1] and in test [2] were 70 nM and 6 nM, respectively.

`N#CCC1(n2cc(C(N)=O)c(Nc3ccc(F)cc3)n2)CCN(CC2CCCCC2)CC1` [Example 22-6, 1-[4-(cyanomethyl)-1-(cyclohexylmethyl)piperidin-4-yl]-3-[(4-fluorophenyl)amino]-1H-pyrazole-4-carboxamide]: the 50% inhibitory concentration (IC50) in test [1] was found to be 211 nM; in test [2], 6 nM.

On to `N#CCC1(n2cc(C(N)=O)c(Nc3ccc(F)cc3)n2)CCN(Cc2ccccc2)CC1` [Example 22-7, 1-[1-benzyl-4-(cyanomethyl)piperidin-4-yl]-3-[(4-fluorophenyl)amino]-1H-pyrazole-4-carboxamide], for which the figures for the IC50 in test [1] and in test [2] were 13 nM and 0.3 nM, respectively.

The values are drawn from US9328099B2, “Cyanomethylpyrazole carboxamides as janus kinase inhibitors” (Merck Sharp & Dohme Corp., priority 2011, dated 2016).
